Assays:
Taq polymerase [1] = target: T1, Taq polymerase (Thermus aquaticus, UniProt P19821); test: Half-life of Taq polymerase activity at 95° C. in surfactant solutions (3H-TTP incorporation); format: biochemical; conditions: incubated at 95° C.; for estimated half-life of Taq polymerase: Example 2: 0.1% surfactant, control without surfactant less than 5 min; for Taq polymerase half life: Example 7: 0.005% surfactant, 2.5 U/100 μl, estimated graphically
Method: A 10× buffer was made with each of these surfactant solutions. The 10× buffer for each consisted of: 500 mM KCl, 100 mM Tris-HCl pH 9.0 (at 25° C.), 1% surfactant (made by a 1:10 dilution of the detergent solution described above into the buffer during formulation). As described in Example 1, the Taq polymerase used in these experiments was purified without exposure to any detergents. Each of these buffer solutions was used to formulate a Taq-surfactant solution as follows: […]
A control solution was made as indicated above, except that the 32 μl of 10× buffer without surfactant was used. The solutions were incubated at 95° C. and samples (10 μl) were removed and placed in a fresh tube, and kept on ice at 0, 5, 10, 30, 60, 90, and 120 min. The samples were then assayed for Taq polymerase activity.
Taq polymerase activity was determined by measuring the amount of tritiated deoxynucleotide base a sample of the enzyme could incorporate. The assay was performed as follows. Solutions of dATP, dCTP, dGTP and dTTP (Promega U120, U122, U121 and U123, respectively) were diluted to 2 mM final concentration (originally at 100 mM) using nanopure water. Tritiated nucleotide ^3 H-TTP was obtained from Amersham (TRK424, 250 μCi/250 μl). The template for incorporation was calf thymus DNA (Sigma, D-1501) dissolved in 10 mM Tris-HCl pH 7.3, 5 mM MgCl2 to a final concentration of 2.5 mg/ml. Prior to use, the DNA was treated with 1 μl of a 1:10 dilution of RQ1 DNAse (Promega M610) (dilution made using 10 mM Tris-HCl, 5 mM MgCl2) and incubated for 10 min at 37° C. followed by 30 min at 68° C. This was done to "activate" the DNA for incorporation. A 10× Taq assay buffer was made containing 500 mM Tris-HCl (pH 9.0 at 25° C.), 500 mM NaCl, and 100 mM MgCl2.
Time point samples (10 μl) were added to 40 μl of the reaction mix and then incubated at 74° C. for 10 min. After incubation, the solution was diluted with 500 μl of ice cold 10% TCA. The TCA solution was filtered through a GF/A filter. The tube was washed three times with 1 ml of 5% TCA and the wash was then filtered onto the same filter. The filter was then rinsed 3 times with 5% TCA and then rinsed with acetone. The filters were dried 10 min. with a heat lamp and then the radioactivity was counted. The percent of activity present at any time point was determined by dividing the net counts for the sample at that time point by the net counts of the 0 min sample for that enzyme solution and then multiplying by 100%. The percent activity of the solution was plotted versus time. The points were then connected by a smooth curve and the estimated half-life of the enzyme under the conditions chosen was estimated based on the point where the line crossed 50% activity.
In this example, the ability of ethoxylated amines to stabilize thermostable proteins at high temperatures was examined. Solutions of detergent-free Taq polymerase (2.5 U/100 μl of solution) containing 0.005% Tomah E-18-15, Tomah E-18-5, Tween 20, NP-40, and TRITON X-100 were produced as in Example 2. These solutions were incubated at 95° C. and samples were removed at 0, 10, 30, 60 and 120 min and analyzed as in Example 2. The half lives of the enzyme in the presence of these surfactants was estimated graphically. The solutions containing Tomah E-18-5, TRITON X-100 and NP-40 all had Taq polymerase half lives of about 8 min.

Taq polymerase [2] = target: T1, Taq polymerase; test: PCR based assay for Taq polymerase stabilization by detergents (1.5 kb amplification product on agarose gel); format: biochemical; conditions: 2 μl Taq polymerase (10 U/μl)
Method: This Example describes the development of a PCR based assay for polymerase stabilization by detergents (i.e., surfactants). Conditions were defined in which the polymerase was incapable of producing a detectable amplification product in the absence of detergent, but could produce detectable amplification in the presence of a stabilizing detergent, such as Tween 20.
The following reaction mixture was assembled:
pGEM 1 uc (Part # E1541) and 25 mM MgCl2 (Part # M1902) were obtained from Promega Corp, Madison Wis. The 10× Taq buffer formulation was: 500 mM KCl, 100 mM Tris-Cl (pH 9.0 at 25° C.). The 10× Taq buffer was made by dissolving KCl and Trizma in nanopure water and adjusting the pH with concentrated hydrochloric acid. Nanopure water was made by autoclaving deionized water treated by a NANOPURE water system. The 2 mM dNTP mix was made by mixing 100 mM stocks of dATP, dCTP, dGTP, and dTTP (Promega U120, U122, U121 and U123, respectively) with nanopure water to produce a solution containing a 2 mM concentration of each nucleotide. The DNA sequences of the primers used were […] (SEQ ID NO: 1) and […] (SEQ ID NO 2).
One hundred microliters of the reaction mixture were placed into a 0.2 ml tube and 50 μl placed in five additional tubes. […]
The reaction products were analyzed by agarose gel electrophoresis. […]

[3] = McCutcheon's Volume 1: Emulsifiers and Detergents North American Edition, 1996; cited from earlier work

T1 sequence (P19821 whole entry): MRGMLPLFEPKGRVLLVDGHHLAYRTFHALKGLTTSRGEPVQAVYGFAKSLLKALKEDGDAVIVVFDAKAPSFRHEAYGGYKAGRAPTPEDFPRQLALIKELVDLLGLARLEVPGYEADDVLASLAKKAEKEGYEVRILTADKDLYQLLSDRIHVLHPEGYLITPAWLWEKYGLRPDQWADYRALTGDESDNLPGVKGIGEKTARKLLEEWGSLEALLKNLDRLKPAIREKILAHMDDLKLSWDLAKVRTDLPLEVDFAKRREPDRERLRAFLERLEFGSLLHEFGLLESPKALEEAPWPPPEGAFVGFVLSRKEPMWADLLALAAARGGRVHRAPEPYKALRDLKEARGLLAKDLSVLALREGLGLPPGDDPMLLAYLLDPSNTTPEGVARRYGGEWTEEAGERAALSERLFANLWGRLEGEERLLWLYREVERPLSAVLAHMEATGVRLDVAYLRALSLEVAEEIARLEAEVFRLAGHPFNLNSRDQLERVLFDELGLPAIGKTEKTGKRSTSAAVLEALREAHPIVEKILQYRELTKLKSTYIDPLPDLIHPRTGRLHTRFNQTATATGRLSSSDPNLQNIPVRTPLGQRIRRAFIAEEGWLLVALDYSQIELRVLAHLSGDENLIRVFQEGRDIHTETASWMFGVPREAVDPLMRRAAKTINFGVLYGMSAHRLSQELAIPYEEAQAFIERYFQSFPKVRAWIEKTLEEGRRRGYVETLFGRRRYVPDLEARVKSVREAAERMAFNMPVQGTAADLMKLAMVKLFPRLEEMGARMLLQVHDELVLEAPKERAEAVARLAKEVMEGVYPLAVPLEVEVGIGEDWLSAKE

Row | Compound | estimated half-life of Taq polymerase (Taq polymerase [1]) | Taq polymerase half life (Taq polymerase [1]) | also measured
1 | C[C@H](CCC(=O)NCCC[N+](C)(C)CC(O)CS(=O)(=O)[O-])[C@H]1CC[C@H]2[C@@H]3[C@H](O)C[C@@H]4C[C@H](O)CC[C@]4(C)[C@H]3C[C@H](O)[C@]12C (some centres unmarked) [Chapso] | approximately 5 min | – | –
2 | ethoxylated alky phenol [NP-40] | – | about 8 min | –
3 | C[C@H](CCC(=O)NCCC[N+](C)(C)CCCS(=O)(=O)[O-])[C@H]1CC[C@H]2[C@@H]3[C@H](O)C[C@@H]4C[C@H](O)CC[C@]4(C)[C@H]3C[C@H](O)[C@]12C [Chaps] | approximately 5 min | – | –
4 | CCCCCCCCCC[N+](C)(C)CCCS(=O)(=O)[O-] [N-decyl-n,n-dimethyl-3-ammonium-1-propanesulfonate] | – | – | 1.5 kb DNA band (Taq polymerase [2]; Example 3, second set: 5 μl of 10% surfactant in 95 μl mix, no band without surfactant): failed to produce a visible 1.5 kb DNA fragment; 1.5 kb DNA band (Taq polymerase [2]; Example 3: 1 μl of 10% surfactant in 99 μl mix, weaker but visible band without surfactant): band intermediate in intensity
5 | TRITON X-100 | approximately 40 min | about 8 min | HLB Index [3]: 13.5
